In data set [1] the target is T1, CYP11A1 (Homo sapiens, UniProt P05108).
T1 construct: host or cells: V79-4 cells (Chinese hamster), transient transfection, mitochondrial fraction
T1 sequence (P05108 40-521): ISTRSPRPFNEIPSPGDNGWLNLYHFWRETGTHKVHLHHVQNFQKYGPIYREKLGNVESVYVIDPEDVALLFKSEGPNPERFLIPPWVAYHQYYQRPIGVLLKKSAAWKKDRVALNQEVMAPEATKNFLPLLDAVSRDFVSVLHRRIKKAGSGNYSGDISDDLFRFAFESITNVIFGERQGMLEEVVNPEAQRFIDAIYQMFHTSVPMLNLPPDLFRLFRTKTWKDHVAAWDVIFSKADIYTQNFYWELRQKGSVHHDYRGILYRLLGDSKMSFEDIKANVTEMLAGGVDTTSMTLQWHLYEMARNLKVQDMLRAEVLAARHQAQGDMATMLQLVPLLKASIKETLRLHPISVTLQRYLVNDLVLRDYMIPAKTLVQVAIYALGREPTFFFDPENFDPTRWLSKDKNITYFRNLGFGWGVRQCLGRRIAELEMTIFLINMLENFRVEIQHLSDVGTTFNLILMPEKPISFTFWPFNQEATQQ
The data set can be described thus: CYP11A1 assay based on mitochondrial fraction of V79-4 cells. It is filed as biochemical. As to conditions: 10 µM, 20S-hydroxycholesterol 2 µM, 4 h, qualitative, assay of low sensitivity. The protocol:
Mitochondria were prepared as described previously with modifications ([Frezza et al., 2007]). Briefly, V79-4 cells (3,000,000) were seeded 4 h prior to transfection with 4 µg of expression plasmid for CYP11A1 and adrenodoxin (GeneScript Piscataway, USA, clone IDs OHu18602D and OHu55929D) using polyethylemine (PEI) in a PEI/DNA ratio of 3:1 (w/w). At 4 h post-transfection, medium was changed and cells were incubated overnight. Cells were collected in ice cold phosphate buffered saline (PBS) and centrifuged at 600 × g for 10 min at 4 °C. The pellet was resuspended in ice cold isolation buffer (10 mM Tris/MOPS, pH 7.4, 1 mM EGTA/Tris, pH 7.4, 200 mM sucrose in water) and transferred to a glass potter, followed by 35 S using a 2 cm^3 glass Teflon pestle. The homogenate was centrifuged for 10 min at 600 × g and 4 °C. The supernatant was collected and centrifuged for 10 min at 7000 × g at 4 °C. The pellet was washed and resuspended in 200 μL ice cold isolation buffer. After centrifugation, the pellet containing the mitochondrial fraction was resuspended in 30 μL reaction buffer (25 mM HEPES pH 7.4, 0.1 mM DTT, 0.1 mM EDTA, 4 mM MgCl2) and the protein content was determined by the BCA assay according to the manufacturer (Pierce BCA protein assay kit, Thermo Scientific, Rockford, USA). Bovine serum albumin provided with the kit was used as reference protein and absorbance was measured using a BioTek Cytation5 Imaging Reader (Agilent BioTek).
For the CYP11A1 activity assay, 500 µg/mL of freshly prepared mitochondrial fraction were pre-incubated on ice with reaction buffer, 1 mM NADPH and either vehicle (0.1% DMSO), 10 µM of the positive control ketoconazole ([Mast et al., 2013]) or the triazole antifungals for 10 min. The reaction was started by adding the substrate 20S-hydroxycholesterol at a final concentration of 2 µM in a reaction volume of 50 µL. After 4 h of incubation at 37 °C, the reaction was stopped by adding 50 µL methanol and shock-freezing in liquid nitrogen. Samples were stored at −80 °C until sample preparation for pregnenolone detection using an ELISA kit (Alpco, Salem, USA). Sample preparation included evaporation of samples to dryness, reconstitution in 6 µL methanol and 1:25 (v:v) dilution in water. The ELISA was performed according to the manufacturer and absorbance was measured using a BioTek Citation5 imaging reader.

In data set [2] the target is T2, CYP17A1 17,20-lyase (Homo sapiens, UniProt P05093).
T2 construct: expressed in transfected cells; host or cells: COS-1 cells, transient transfection, microsomal fraction
T2 sequence (P05093 1-508): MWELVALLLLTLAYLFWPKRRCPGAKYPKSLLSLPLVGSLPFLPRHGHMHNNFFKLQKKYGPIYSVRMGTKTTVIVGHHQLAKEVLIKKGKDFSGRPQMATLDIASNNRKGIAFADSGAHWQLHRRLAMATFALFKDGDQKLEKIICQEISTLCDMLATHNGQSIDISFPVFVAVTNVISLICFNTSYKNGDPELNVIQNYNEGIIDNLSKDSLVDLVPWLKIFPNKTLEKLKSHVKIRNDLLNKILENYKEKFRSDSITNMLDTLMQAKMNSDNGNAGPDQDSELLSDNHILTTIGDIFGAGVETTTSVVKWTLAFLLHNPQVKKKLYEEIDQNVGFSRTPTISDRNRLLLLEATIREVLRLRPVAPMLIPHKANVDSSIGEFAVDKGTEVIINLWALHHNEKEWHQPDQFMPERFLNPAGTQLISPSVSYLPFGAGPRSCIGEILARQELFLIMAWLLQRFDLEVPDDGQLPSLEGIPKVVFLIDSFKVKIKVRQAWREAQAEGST
Briefly: CYP17A1 17,20-lyase activity assay, microsomes of transfected COS-1 cells. It is filed as biochemical. As to conditions: for IC50: cell-free, 17α-hydroxypregnenolone 500 nM, 1 h. The protocol:
(§1) Microsomes were prepared from COS-1 cells transiently transfected with plasmids for either CYP17A1 and POR for CYP17A1-hydroxylase assay (human CYP17A1 was available in our own plasmid collection after cloning into pcDNA3, POR was ordered from Genescript, Piscataway, USA, clone ID OHu25584C), CYP17A1, POR and cytochrome b5 for CYP17A1 17,20-lyase assay (cytochrome b5 was from Genescript, clone ID OHu09495D), POR and CYP21A2 (Genescript, CYP21A2 clone ID OHu18602D), or 3β-HSD2 (Genescript, clone ID OHu14034D). Transfection was performed using PEI and equal amounts of required plasmids with a total DNA amount of 8 µg per transfection of 3,000,000 cells. After overnight incubation, cells were washed with prewarmed PBS before adding ice-cold PBS. Cells were collected and centrifuged at 600 × g for 4 min at 4 °C, washed with ice cold PBS and centrifuged again. The pellet was resuspended in a resuspension buffer (20 mM Tris, pH 7.5, 50 mM KCl, 2 mM MgCl2, 0.25 M sucrose). Cells were disrupted with 30 S by a glass potter (2 cm^3) as described above. The homogenate was centrifuged for 20 min at 12,000 × g and 4 °C. Microsomes were pelleted by ultracentrifugation at 100,000 × g for 1 h at 4 °C. The pellet was resuspended in reaction buffer and the protein concentration determined using the Pierce Protein BCA kit as described above.
Microsomes, 250 µg/mL, expressing CYP17A1, POR and cytochrome b5 were incubated in reaction buffer for 10 min with 1 mM NADPH and the azole antifungals. The reaction was started by adding 500 nM 17α-hydroxypregnenolone in a total reaction volume of 50 µL. After 1 h of incubation at 37 °C, the reaction was stopped adding 50 µL methanol. Samples were evaporated to dryness, reconstituted in 6 µL methanol, diluted 1:25 in water and the DHEA concentration was quantified using an ELISA kit (DEH3344, Demeditec, Kiel, Germany). Absorbance was measured using a BioTek Citation5 imaging reader.

For data set [3], the target named is T3, CYP17A1 17α-hydroxylase (Homo sapiens, UniProt P05093).
T3 construct: expressed in transfected cells; host or cells: COS-1 cells, transient transfection, microsomal fraction
T3 sequence (P05093 1-508): T2 sequence (P05093 1-508)
The data set can be described thus: CYP17A1 17α-hydroxylase activity assay, microsomes of transfected COS-1 cells. It is filed as biochemical. The note with it: cell-free. As to the method: as §1
(§2) Microsomal protein (250 µg/mL) was preincubated with 1 mM NADPH and the compound of interest in reaction buffer for 10 min. The reaction was started by adding progesterone spiked with a radioactive tracer (final activity 0.025 mCi) to a final concentration of 500 nM. After 10 min of incubation at 37 °C the reaction was stopped by adding enzyme substrate and product at a final concentration of 1 mM in methanol, followed by shock-freezing in liquid nitrogen. Steroids were separated by thin layer chromatography on SIL G-25 UV254 TLC plates (Macherey-Nagel, Düren, Germany) using chloroform and ethyl acetate (1:4; v:v). Bands were excised and radiolabeled steroids analyzed by scintillation counting using […] Plus cocktail (Zinsser Analytic, Frankfurt am Main, Germany) and a β-counter (Packard, Connecticut, USA). Relative conversion was calculated based on total counts.

For data set [4], the target named is T4, CYP21A2 (Homo sapiens, UniProt P08686).
T4 construct: host or cells: COS-1 cells, transient transfection, microsomal fraction
T4 sequence (P08686 1-495): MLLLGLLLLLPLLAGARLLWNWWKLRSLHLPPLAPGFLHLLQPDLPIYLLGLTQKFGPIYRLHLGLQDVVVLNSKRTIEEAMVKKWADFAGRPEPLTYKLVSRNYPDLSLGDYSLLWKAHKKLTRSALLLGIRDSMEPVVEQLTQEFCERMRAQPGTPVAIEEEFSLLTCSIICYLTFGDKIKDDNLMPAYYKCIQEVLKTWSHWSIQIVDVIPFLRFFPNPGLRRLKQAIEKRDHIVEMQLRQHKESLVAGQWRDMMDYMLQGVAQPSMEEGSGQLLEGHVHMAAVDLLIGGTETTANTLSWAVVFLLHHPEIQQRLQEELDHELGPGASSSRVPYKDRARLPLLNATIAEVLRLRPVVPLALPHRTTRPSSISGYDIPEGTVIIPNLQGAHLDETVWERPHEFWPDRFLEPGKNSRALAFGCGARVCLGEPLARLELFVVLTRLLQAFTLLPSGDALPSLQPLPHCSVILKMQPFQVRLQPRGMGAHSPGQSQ
The data set can be described thus: CYP21A2 activity assay, microsomes of transfected COS-1 cells. It is filed as biochemical. As to conditions: cell-free, progesterone 500 nM, 10 min. The protocol: as §1, §2

Data set [5] concerns 11β-HSD2. On the set-up: method as in Beck et al., 2017, Beck et al., 2020a. The note with it: in words, ref Beck et al., 2017, Beck et al., 2020a; cited from earlier work.
For data set [6], the system named is H295R cells. Briefly: Steroidogenesis assay in forskolin-stimulated H295R cells, UHPLC-MS/MS. It is filed as cell-based, human. As to conditions: forskolin-stimulated, 48 h, in words. As to the method:
Briefly, 200,000 cells/mL between passages 5 and 10 were seeded in a 24-well plate. After 24 h, the medium was replaced by fresh medium containing reference or test compounds. […] As a time zero control, complete medium was incubated without cells. After 48 h of incubation, the cell culture supernatant was collected and stored at −20 °C until steroid quantification was performed by ultra-high liquid chromatography tandem mass spectrometry (UHPLC-MS/MS). All experiments were performed three times independently in technical duplicates.
Using water, the sample volume was adapted to 1 mL. Samples were extracted using Oasis HLB 3 cc SPE cartridge (30 mg, 30 μm particle size, Waters, Massachusetts, USA). Columns were preconditioned with 1 mL ethyl acetate and water prior to application of samples. After sample loading, columns were washed three times with 1 mL methanol (10% v/v) and water before samples were eluted applying 0.75 mL ethyl acetate twice. Eluates were evaporated to dryness and reconstituted in 50 µL methanol. Samples were applied to a reverse phase column (Waters Acquity UPLC BEH C18, 1.7 μm, 2.1 mm × 150 mm). […] Applied mobile phases consisted of water, acetonitrile and formic acid (95/5/0.1; v/v/v and 5/95/0.1; v/v/v). For data analysis, Hunter software version B.09.00 (Agilent Technologies) was used. Lower limit of detection (LOD), lower limit of quantification (LLOQ), and upper limit of quantification (ULOQ) are shown in Table 1.

On the set-up of data set [7]: method as in earlier work. The note with it: ref Zhang et al., 2018, Märtson et al., 2019, Vena et al., 2020, Risum et al., 2021, cited from earlier work.
Where [8] appears, read: progesterone 500 nM, 10 min, read-out: IC50 CYP17A1 17α-hydroxylase mean.

Like-named read-outs stand apart in the source and are kept apart here.

As for `CC(=O)N1CCN(c2ccc(OCC3COC(Cn4ccnc4)(c4ccc(Cl)cc4Cl)O3)cc2)CC1` (centres unmarked) [ketoconazole], in data set [1], the “inhibition of CYP11A1 activity” value is “weak inhibitory effect”.
By IC50 is commonly meant the concentration that gives 50% inhibition. As to `CC(O)C(C)n1ncn(-c2ccc(N3CCN(c4ccc(OCC5COC(Cn6cncn6)(c6ccc(Cl)cc6Cl)O5)cc4)CC3)cc2)c1=O` (centres unmarked) [OH-itraconazole, Hydroxyitraconazole], the results for the IC50 in data set [2], in data set [3] (setting [8]) and in data set [4] were 2480 nM, 7160 nM and over 10000 nM, respectively. In addition, the “lower inhibitory potency against 17,20-lyase than posaconazole” value in data set [2] (relative to posaconazole) was determined as 10 times. Besides, the “inhibition of CYP17A1 17α-hydroxylase” value in data set [3] (in words) was “very weakly”.
Regarding `C[C@@H](c1ncncc1F)[C@](O)(Cn1cncn1)c1ccc(F)cc1F` [voriconazole], the IC50 in data set [2], in data set [3] (setting [8]) and in data set [4] was over 10000 nM throughout. Besides, in data set [5], the “inhibition of 11β-HSD2” value was “inactive”. Also, the “effect on the steroid profile” value in data set [6] is listed as “only minor effects on the steroid profile”.
On to `CCCN(CCOc1c(Cl)cc(Cl)cc1Cl)C(=O)n1ccnc1` [prochloraz], for which the IC50 in data set [2] was determined as 40 nM; in data set [3] (setting [8]) it was 90 nM; in data set [3] (read-out: IC50 against 17α-hydroxylase), 94.5 nM; in data set [4], 210 nM. Moreover, in data set [6], the “effect on the steroid profile” value is listed as “significant accumulation of progesterone”.
For `OC(Cn1cncn1)(Cn1cncn1)c1ccc(F)cc1F` [fluconazole], the IC50 in data set [2], in data set [3] (setting [8]) and in data set [4] was over 10000 nM throughout. The “inhibition of 11β-HSD2” value in data set [5] is “inactive”. Further, the serum trough concentration in data set [7] (molar value in brackets) is listed as about 3 µM; in data set [7], 11 µg/mL. In addition, the “effect on the steroid profile” value in data set [6] was “only minor effects on the steroid profile”.

The values above are taken from article PMC10458698, “Characterization of the interferences of systemic azole antifungal drugs with adrenal steroid biosynthesis using H295R cells and enzyme activity assays” (Current Research in Toxicology, 2023).
